Measured values from patent US6653478B2, “Substituted benzimidazol-2-ones as vasopressin receptor antagonists and neuropeptide Y modulators” (Ortho-McNeil Pharmaceutical, Inc., priority 2000, dated 2003).

Assays:
Parameters in all cases: expressed in transfected cells; host or cells: HEK-293 (membranes)
[1] = molecular target: T1, human V1b receptor (Homo sapiens, UniProt P47901); assay: V1b binding assay (3H-AVP displacement, HEK-293 membranes); settings: for inhibition at 1 µM: 1.0 μM compound, read-out: V1b@1.0, % Inh
T1 sequence (P47901 1-424): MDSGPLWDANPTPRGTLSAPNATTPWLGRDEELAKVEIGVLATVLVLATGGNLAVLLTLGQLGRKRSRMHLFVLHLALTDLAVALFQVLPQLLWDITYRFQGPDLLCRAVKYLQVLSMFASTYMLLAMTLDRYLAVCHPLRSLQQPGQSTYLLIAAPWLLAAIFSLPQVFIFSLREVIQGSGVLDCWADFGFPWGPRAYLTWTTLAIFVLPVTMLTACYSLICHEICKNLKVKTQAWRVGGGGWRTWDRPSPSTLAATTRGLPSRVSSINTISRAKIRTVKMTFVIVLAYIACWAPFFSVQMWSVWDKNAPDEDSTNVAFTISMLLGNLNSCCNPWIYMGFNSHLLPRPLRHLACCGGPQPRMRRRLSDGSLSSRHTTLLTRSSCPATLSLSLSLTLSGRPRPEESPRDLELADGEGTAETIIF
Protocol: (§1) V1a, V1b or V2 Binding Assay
(§2) Receptor binding studies were performed using recombinant human V1a, V1b or V2 receptors. Cellular membranes were harvested from HEK-293 cells transfected to express either the V1a, V1b or V2 receptors. Compounds were evaluated for their ability to displace ^3H-arginine vasopressin (^3H-AVP; specific activity 40-87 Ci/mmol; NEN Life Sciences, Boston, Mass.). Compounds were solubilized in dimethylsulfoxide (DMSO) and diluted to working concentration of 10% DMSO with assay buffer (50 mM Tris, 5 mM MgCl2, 0.1% BSA, pH 7.5). Assay buffer was supplemented with several protease inhibitors (1 mM Pefabloc, 5 μg/ml aprotinin/leupeptin/pepstatin A, 50 μg/ml bacitracin; Sigma Chemical, St. Louis, Mo.). Non-specific binding was determined using 1.25 μM arginine vasopressin (AVP; Peninsula Labs, Belmont, Calif.). Assay reagents and test compounds were added to 96-well round bottom polypropylene plates (145 μl buffer, 5 μl compound in 10% DMSO, 25 μl buffer containing 10,000 cpm tracer, 25 μl cell membrane). After incubation for 1 hour at room temperature, the well contents were aspirated across a Unifilter GF/C plate (Packard Instrument, Downers Grove, Ill.) which had been presoaked in 0.3% polyethyleneimine to prevent peptide sticking. The wells were washed repeatedly with cold saline containing 0.05% Tween 20. The plate was then dried and 25 μl Microscint-20 cocktail (Packard Instruments) added to each well. The plates were sealed and counted on a TopCount scintillation counter (Packard Instruments) using quench correction.

[2] = molecular target: human V2 receptor (Homo sapiens, UniProt P30518); assay: V2 binding assay (3H-AVP displacement, HEK-293 membranes); settings: 1.0 μM compound; for inhibition at 1 µM: read-out: V2@1.0, % Inh
Protocol: as §1, §2

[3] = molecular target: human V1a receptor (Homo sapiens, UniProt P37288); assay: V1a binding assay (3H-AVP displacement, HEK-293 membranes); settings: for inhibition at 1 µM: 1.0 μM compound, read-out: V1a@1.0, % Inh
Protocol: as §1, §2

Sequence of human V1a receptor (P37288 whole entry): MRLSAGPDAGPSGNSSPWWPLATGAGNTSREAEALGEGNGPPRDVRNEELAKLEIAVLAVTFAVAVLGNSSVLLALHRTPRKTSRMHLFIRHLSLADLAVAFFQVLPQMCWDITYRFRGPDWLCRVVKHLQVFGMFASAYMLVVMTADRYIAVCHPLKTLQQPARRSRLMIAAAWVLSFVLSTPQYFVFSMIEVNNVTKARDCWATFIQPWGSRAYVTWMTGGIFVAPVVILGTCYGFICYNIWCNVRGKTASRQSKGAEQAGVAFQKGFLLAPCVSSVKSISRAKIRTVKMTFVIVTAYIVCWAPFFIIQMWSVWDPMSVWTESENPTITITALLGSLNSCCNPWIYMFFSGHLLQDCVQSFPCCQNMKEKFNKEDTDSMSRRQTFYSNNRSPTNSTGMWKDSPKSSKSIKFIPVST
Sequence of human V2 receptor (P30518 whole entry): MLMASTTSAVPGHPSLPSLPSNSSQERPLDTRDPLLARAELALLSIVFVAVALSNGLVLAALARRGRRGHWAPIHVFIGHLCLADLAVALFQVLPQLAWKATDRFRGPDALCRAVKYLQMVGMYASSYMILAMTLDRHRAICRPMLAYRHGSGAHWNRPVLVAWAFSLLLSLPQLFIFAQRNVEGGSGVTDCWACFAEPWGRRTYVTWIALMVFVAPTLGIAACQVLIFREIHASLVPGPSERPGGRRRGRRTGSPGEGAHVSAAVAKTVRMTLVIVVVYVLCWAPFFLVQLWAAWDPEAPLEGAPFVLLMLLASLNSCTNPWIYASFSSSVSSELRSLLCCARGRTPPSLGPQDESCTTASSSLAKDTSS

CCCN(CCC)CCCn1c(=O)n(C2CCN(C(=O)NC(c3ccccc3)c3ccccc3)CC2)c2ccccc21 [Compound 80, 1-[(N1-piperidinocarbonylbiphenylmethylamino)-4-yl]-3-(3-N,N-dipropylaminopropyl)-1,3-dihydrobenzimidazol-2-one]
inhibition at 1 µM [1]: 38% | inhibition at 1 µM [2]: 11% | IC50 [3]: 170 nM

O=c1n(CCCNCC2CCCCC2)c2ccccc2n1C1CCN(C(=S)NC(c2ccccc2)c2ccccc2)CC1 [Compound 88, 1-[(N1-piperidinocarbothioylbiphenylmethylamino)-4-yl]-3-(3-cyclohexylmethylaminopropyl)-1,3-dihydrobenzimidazol-2-one]
IC50 [1]: 1000 nM | inhibition at 1 µM [2]: 3% | IC50 [3]: 36 nM

O=c1n(CCCN2CCCCC2)c2cc(C(F)(F)F)ccc2n1C1CCN(C(=S)NC(c2ccccc2)c2ccccc2)CC1 [Compound 121]
inhibition at 1 µM [1]: 39% | inhibition at 1 µM [2]: 3% | IC50 [3]: 330 nM

CCCC1CCN(CCCn2c(=O)n(C3CCN(C(=S)NC(c4ccccc4)c4ccccc4)CC3)c3ccccc32)CC1 [Compound 122, 1-[(N1-piperidinocarbothioylbiphenylmethylamino)-4-yl]-3-(4-propylpiperidin-1-yl-propyl)-1,3-dihydrobenzimidazol-2-one]
IC50 [1]: 250 nM | inhibition at 1 µM [1]: 70% | inhibition at 1 µM [2]: 0% | IC50 [3]: 52 nM

COc1cccc(CNC(=S)N2CCC(n3c(=O)n(CCCN4CCCC4)c4ccccc43)CC2)c1OC [Compound 123, 1-[(N1-Piperidinocarbothioyl-(2,3-dimethoxybenzyl)amino)-4-yl]-3-(3-pyrrolidinylpropyl)-1,3-dihydrobenzimidazol-2-one]
inhibition at 1 µM [1]: 31% | inhibition at 1 µM [2]: 2% | IC50 [3]: 430 nM

O=c1n(CCCN2CCCCC2)c2ccccc2n1C1CCN(C(=S)NCc2ccc(Cl)cc2)CC1 [Compound 124, 1-[(N1-piperidinocarbothioyl-4-chlorobenzylamino)-4-yl]-3-(3-N-piperidinylpropyl)-1,3-dihydrobenzimidazol-2-one]
inhibition at 1 µM [1]: 44% | inhibition at 1 µM [2]: 3% | IC50 [3]: 29 nM

O=c1n(CCCN2CCCCC2)c2ccccc2n1C1CCN(C(=S)NC2CCCCC2)CC1 [Compound 125, 1-[(N1-piperidinocarbothioylcyclohexylamino)-4-yl]-3-(3-N-piperidinylpropyl)-1,3-dihydrobenzimidazol-2-one]
inhibition at 1 µM [1]: 35% | inhibition at 1 µM [2]: 0% | IC50 [3]: 390 nM

O=c1n(CCCN2CCCCC2)c2ccccc2n1C1CCN(C(=S)NC(c2ccccc2)(c2ccccc2)c2ccccc2)CC1 [Compound 126, 1-[(N1-piperidinocarbothioyltriphenylmethylamino)-4-yl]-3-(3-N-piperidinylpropyl)-1,3-dihydrobenzimidazol-2-one]
inhibition at 1 µM [1]: 0% | inhibition at 1 µM [2]: 0% | inhibition at 1 µM [3]: 0%

O=c1n(CCCN2CCCCC2)c2ccccc2n1C1CCN(C(=S)NCc2ccccc2-c2ccccc2)CC1 [Compound 127]
inhibition at 1 µM [1]: 45% | V2@1.0, % Inh ([2]; 1 µM): 0% | IC50 [3]: 22 nM

CCCNC(=S)N1CCC(n2c(=O)n(CCCN3CCCCC3)c3ccccc32)CC1 [Compound 128, 1-[(N1-piperidinocarbothioylpropylamino)-4-yl]-3-(3-N-piperidinylpropyl)-1,3-dihydrobenzimidazol-2-one]
inhibition at 1 µM [1]: 31% | inhibition at 1 µM [2]: 0% | inhibition at 1 µM [3]: 12%

O=c1n(CCCN2CCCCC2)c2ccccc2n1C1CCN(C(=S)N[C@]23C[C@H]4C[C@H](C[C@H](C4)C2)C3)CC1 [Compound 129, 1-[(N1-piperidinocarbothioyl-1-adamantylamino)-4-yl]-3-(3-N-piperidinylpropyl)-1,3-dihydrobenzimidazol-2-one]
inhibition at 1 µM [1]: 53% | inhibition at 1 µM [2]: 3% | IC50 [3]: 73 nM

CC(C)(C)NC(=S)N1CCC(n2c(=O)n(CCCN3CCCCC3)c3ccccc32)CC1 [Compound 130, 1-[(N1-piperidinocarbothioyl-butylamino)-4-yl]-3-(3-N-piperidinylpropyl)-1,3-dihydrobenzimidazol-2-one]
inhibition at 1 µM [1]: 26% | inhibition at 1 µM [2]: 2% | inhibition at 1 µM [3]: 19%

O=c1n(CCCN2CCCCC2)c2ccccc2n1C1CCN(C(=S)NC2c3ccccc3-c3ccccc32)CC1 [Compound 131, 1-[(N1-piperidinocarbothioylfluorenylamino)-4-yl]-3-(3-N-piperidinylpropyl)-1,3-dihydrobenzimidazol-2-one]
inhibition at 1 µM [1]: 62% | inhibition at 1 µM [2]: 0% | IC50 [3]: 48 nM

CC(C)c1ccccc1NC(=S)N1CCC(n2c(=O)n(CCCN3CCCCC3)c3ccccc32)CC1 [Compound 132, 1-[(N1-piperidinocarbothioyl-2-isopropylphenylamino)-4-yl]-3-(3-N-piperidinylpropyl)-1,3-dihydrobenzimidazol-2-one]
inhibition at 1 µM [1]: 55% | inhibition at 1 µM [2]: 0% | inhibition at 1 µM [3]: 66%

O=c1n(CCCN2CCCCC2)c2ccccc2n1C1CCN(C(=S)NCCCc2ccccc2)CC1 [Compound 133, 1-[(N1-piperidinocarbothioylphenpropylamino)-4-yl]-3-(3-N-piperidinylpropyl)-1,3-dihydrobenzimidazol-2-one]
inhibition at 1 µM [1]: 42% | inhibition at 1 µM [2]: 4% | IC50 [3]: 69 nM

O=c1n(CCCC2CCCCC2)c2ccccc2n1C1CCN(C(=S)NC(c2ccccc2)c2ccccc2)CC1 [Compound 134, 1-[(N1-Piperidinocarbothioyldiphenylmethylamino)-4-yl]-3-(3-cyclohexylpropyl)-1,3-dihydro-benzimidazol-2-one]
inhibition at 1 µM [1]: 37% | inhibition at 1 µM [2]: 0% | IC50 [3]: 450 nM

COc1ccc(C(NC(=S)N2CCC(n3c(=O)n(CCCN4CCCCC4)c4ccccc43)CC2)c2ccc(OC)cc2)cc1 [Compound 136]
inhibition at 1 µM [1]: 50% | inhibition at 1 µM [2]: 25% | IC50 [3]: 79 nM

CC(NC(=S)N1CCC(n2c(=O)n(CCCN3CCCCC3)c3ccccc32)CC1)c1ccc(F)cc1 (stereo not drawn) [Compound 137]
inhibition at 1 µM [1]: 41% | inhibition at 1 µM [2]: 0% | IC50 [3]: 91 nM

CC(C)c1ccccc1NC(=O)N1CCC(n2c(=O)n(CCCN3CCCCC3)c3ccccc32)CC1 [Compound 138]
inhibition at 1 µM [1]: 21% | inhibition at 1 µM [2]: 0% | inhibition at 1 µM [3]: 58%

O=c1n(CCCN2CCC2)c2ccccc2n1C1CCN(C(=S)NC(c2ccccc2)c2ccccc2)CC1 [Compound 140]
inhibition at 1 µM [1]: 28% | inhibition at 1 µM [2]: 0% | inhibition at 1 µM [3]: 59%

O=c1n(CCCN2CCCCCC2)c2ccccc2n1C1CCN(C(=S)NC(c2ccccc2)c2ccccc2)CC1 [Compound 141]
inhibition at 1 µM [1]: 29% | inhibition at 1 µM [2]: 0% | inhibition at 1 µM [3]: 83%

O=C1CCCN1CCCn1c(=O)n(C2CCN(C(=S)NC(c3ccccc3)c3ccccc3)CC2)c2ccccc21 [Compound 175]
inhibition at 1 µM [1]: 23% | inhibition at 1 µM [3]: 61%

O=C1CCCCN1CCCn1c(=O)n(C2CCN(C(=S)NC(c3ccccc3)c3ccccc3)CC2)c2ccccc21 [Compound 176]
inhibition at 1 µM [1]: 31% | inhibition at 1 µM [3]: 59%

CC(C)N(CCCn1c(=O)n(C2CCN(C(=S)NC(c3ccccc3)c3ccccc3)CC2)c2ccccc21)C1CCCCC1 [Compound 177]
inhibition at 1 µM [1]: 31% | IC50 [3]: 147 nM

CCCCN(CC)CCCn1c(=O)n(C2CCN(C(=S)NC(c3ccccc3)c3ccccc3)CC2)c2ccccc21 [Compound 178]
inhibition at 1 µM [1]: 43% | IC50 [3]: 90 nM

CCN(CCCn1c(=O)n(C2CCN(C(=S)NC(c3ccccc3)c3ccccc3)CC2)c2ccccc21)C1CCCCC1 [Compound 179]
inhibition at 1 µM [1]: 65% | IC50 [3]: 145 nM

CCC1CCN(CCCn2c(=O)n(C3CCN(C(=S)NC(c4ccccc4)c4ccccc4)CC3)c3ccccc32)C(C)C1 (stereo not drawn) [Compound 180]
inhibition at 1 µM [1]: 58% | IC50 [3]: 67 nM

CC1CCCCN1CCCn1c(=O)n(C2CCN(C(=S)NC(c3ccccc3)c3ccccc3)CC2)c2ccccc21 (stereo not drawn) [Compound 181]
IC50 [1]: 150 nM | IC50 [3]: 23 nM
